The values below come from PubChem BioAssay (NCI).

What all share (assay): NCI tumour cell line growth inhibition, 48 h
Test [1] concerns M19-MEL melanoma.
Test [2] relates to KM20L2 colon.
For test [3], the system named is DMS 273 small cell lung.
Test [4] concerns BT-549 breast.
Test [5] has as its system PC-3 prostate.
Test [6] concerns DU-145 prostate.
Test [7] concerns RXF-631 renal.
Test [8] has as its system P388 leukemia.
Test [9] has as its system P388/ADR leukemia.
Test [10] relates to SN12K1 renal.
Test [11] has as its system MDA-MB-435.
For test [12], the system named is MDA-N.

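The compound was tested at five concentrations on cells cultured in 96-well plates, with a 48-hour exposure period. GI50 is the concentration that inhibits growth by half. TGI: concentration producing complete growth inhibition.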

On to `C=C1C(=O)C23C(O)C1CC[C@H]2C12CCCC(C)(COC(C)=O)[C@H]1[C@H](O)[C@]3(O)OC2` (stereo not given in full), for which the TGI turned out to be 4.69 µM in test [1]; 3.01 µM in [2]; 4.22 µM in [3]; 2.86 µM in [4]; 3.78 µM in test [5]; 16.2 µM in test [6].

Turning to `C=C1C2Oc3ccccc3C1N(c1ccccc1)O2` (stereo not given), the figures for the TGI in test [1], in test [2] and in [7] were greater than 100 µM, greater than 100 µM and 45.6 µM, respectively.

Consider `N#C/C(=C1\SC(N=Nc2ccc(Cl)cc2)C(=O)N1c1ccccc1)c1nc2ccccc2[nH]1` (stereo not given), for which the TGI in [1] was 95.4 µM; in test [2], greater than 100 µM; in [3], greater than 100 µM.

For the compound `Cc1cccc(C)c1N1C(=O)C(=O)C(c2nc3ccccc3s2)C(=Nc2cccc3c(=O)[nH][nH]c(=O)c23)C1=O` (stereo not given), the TGI in [1], in [2] and in [3] was greater than 100 µM each time.

Consider `CN(C)C(=S)Nc1nnc(Nc2ccccc2)s1`, for which the TGI in test [1], in test [2], in [3] and in [7] was greater than 100 µM each time.

With `CC(=O)[CH-]C(=O)c1ccccc1.CC(=O)[CH-]C(=O)c1ccccc1.CC1(C)OCC(C2OC3OC(C)(C)OC3C2[O-])O1.CC[O-].[Ti+4]` (stereo not given), in [1], the GI50 was 10.5 µM and the TGI was determined as 24.5 µM. For the same compound, in [2], the GI50 was 21 µM and the TGI was determined as 53.5 µM.

For the compound `Nc1ccccc1C(=O)C(Br)C(Br)c1ccc2c(c1)OCO2` (stereo not given), the values for the TGI in test [1], in [2] and in test [3] were 39.6 µM, 31 µM and 34 µM, respectively.

Compound `COc1ccccc1NC(=O)/C(=C/c1ccccc1)C(C)=O` returned a TGI in test [1] greater than 100 µM.

On to `CCCCCCC(C)CCCCCCCCCCC(=O)O` (stereo not given), for which the TGI in test [1], in [2], in test [3] and in [7] was greater than 100 µM throughout.

Take `COc1cc(C2c3cc4c(cc3[C@@H](Nc3ccc5c(c3)OCCO5)C3COC(=O)[C@H]23)OCO4)cc(OC)c1O` (stereo not given in full): the TGI was greater than 35.9 µM in [1]; 9.05 µM in test [2]; 1.87 µM in test [3]; 1260 nM in test [8]; 1250 nM in [9]; 9.19 µM in test [10]. For the same compound, the TGI in test [4] is 16.4 µM; in test [7], 3.51 µM; in test [5] it was greater than 100 µM; in [6], greater than 100 µM.

Consider `O=C1CNS(=O)(=O)N1`, for which the TGI in test [1] and in [3] was greater than 100 µM each time.

As for `CC1(C)CC(=O)C(CC2C(=O)c3ccccc3C2=O)C(=O)C1`, the TGI in test [1], in test [2] and in test [3] was greater than 100 µM in each case.

For `Cn1c(=O)nc2n(-c3ccc(Cl)c(C(F)(F)F)c3)c3ccccc3nc-2c1=O`, the TGI in test [1] was 27.8 µM; in [2] it was 73.9 µM; in [3], greater than 100 µM.

As for `O=S1CSSC1`, the TGI was 14.4 µM in [1], 52.5 µM in test [2], 25.1 µM in test [3] and 29.8 µM in test [7].

Consider `Cc1c(C(=O)/C=C/c2ccccc2[N+](=O)[O-])[n+](=O)c2ccccc2n1[O-]`, for which the TGI came out at 20.5 µM in test [1], 18 µM in [2], 16.8 µM in test [3] and 23.9 µM in test [7].

Turning to `N#CC(C#N)=c1c2nsnc2c(=C(C#N)C#N)c2nsnc12`, the TGI in test [2] is 3.26 µM; in test [3] it was 3.24 µM.

`O=C(CC1(O)C(=O)Nc2c(Cl)ccc(Cl)c21)c1ccc(Cl)cc1Cl` (stereo not given): the results for the TGI in [1], in test [2] and in test [3] were 20.1 µM, greater than 100 µM and 37.8 µM, respectively.

For the compound `CC(C)(C)OC(=O)NC1CCCC1=O` (stereo not given), the TGI in [1], in test [2], in [3] and in test [7] was greater than 100 µM throughout.

In the case of `O=C1C2=C(CCC2)Nc2cccc3ncn1c23`, the TGI in test [1], in test [2] and in test [3] was greater than 100 µM throughout.

As for `CCCCCCCCCCCC1CC(=O)NCCCN(C)CCCCN(C)CCCN1C` (stereo not given), the TGI in test [1] was determined as 3.24 µM; in [2], 3.01 µM; in [3] it was 2.61 µM.

As to `Cc1ccc(NC(=O)/C(Cc2cc(=O)oc3cc(O)ccc23)=N\NC(=O)C[N+](C)(C)C)cc1C`, the TGI in [11], in test [4], in test [5], in test [12] and in test [6] was greater than 100 µM in each case.

Consider `Cc1ccc(NC(=O)/C(Cc2nc3ccc([N+](=O)[O-])cc3[nH]c2=O)=N\NC(=O)C[n+]2ccccc2)c(C)c1`, for which the TGI in test [11], in test [4], in test [5], in test [12] and in test [6] was greater than 100 µM each time.

`COc1ccc2[nH]c(-c3ccc(O)cc3)cc(=O)c2c1`: the TGI was greater than 86 µM in test [1]; greater than 18.6 µM in test [2]; 0.717 µM in test [3]; greater than 100 µM in test [4]; greater than 100 µM in test [7]; greater than 100 µM in [5]. The TGI in test [12] and in test [6] was greater than 100 µM each time.
